Results reported in publication PMC11758221, “Late-Stage Minimal Labeling of Peptides and Proteins for Real-Time Imaging of Cellular Trafficking” (ACS Central Science, 2024).
Read-outs that look alike come from different tables or passages of the source. Where a SMILES comes first, the peptide text is derived from it. Where no end group is shown, it is not given here. The star is where a group is joined. X1 = O=[N+]([O-])c1ccc(*)c2nsnc12

Experiments:
Human red blood cells = assay: Haemolysis assay; type: cell-based
Protocol: H aemolysis assays. […] H u man red bl ood cel l s w ere separated f rom seru m an d w ash ed i n ph osph ate- bu ff ered sal i n e (P B S , pH 7.4) with 4–5 ti mes cen tri f u gati on at 4000 rpm f o r 1 mi n . E ryth rocytes w ere th en resu spended in PBS as a 0.5% (v/v) sol u ti on , an d co- i n cu bated w i th seri al l y di l u ted pepti des i n a 96-w el l pl ate f o r 1 h at 37 °C . […] PBS and […]
0 .0 1 % (v /v ) Tri to n X-100 w ere u sed as con trol s to establ i sh 0% an d 100% of h aemol ysis, respecti vel y. […]

[1] = Stability of labeled peptide with reducing bioanalytes (HPLC); type: physicochemical; settings: peptide 250 µM in PBS pH 7.8, 37 °C
Protocol: 5 mM gl u tath i on e >95% >95% >95%
Figure S8. Stability analysis of P1-SNBD under physiological conditions. […]

[2] = Chemical stability in PBS, cell culture media and reducing environments; type: physicochemical
Protocol: Next, we investigated the optical properties and stability of the S-aryl linkage in the two labeled peptides P1-SNBD and cP1-SNBD. We examined their chemical stability after incubation in phosphate buffered saline (PBS, pH 7.0) at 25 °C and cell culture media at 37 °C (Figures S6 and S7) as well as different biologically relevant reducing environments (Figure S8). […] Finally, we measured the emission spectra of P1-SNBD and cP1-SNBD and confirmed that the two peptides retained the fluorogenic behavior of benzodiazoles (Figure S9).

[3] = system: RAW264.7 macrophages expressing the chemokine receptor CCR2; assay: Confocal imaging of receptor-mediated endocytosis of the labeled chemokine; type: cell-based, mouse; settings: RAW264.7 cells, 4 μM, 1 h
Source text: Figure 6 Site-selective mCCL2 chemokine labeling and real-time imaging of receptor-mediated endocytosis in live macrophages. A) Schematic representation of the chemokine mCCL2 (PDB: 1DOK) depicting the incorporation of SNBD at the C-terminal end. B) Coomassie-stained and in-gel fluorescence scanning of unlabeled mCCL2, mCCL2-SNBD, and the Pd-SNBD complex. C) Mass spectrometry analysis of unlabeled mCCL2 and mCCL2-SNBD proteins. D) Representative fluorescence confocal microscopy images of RAW264.7 cells after incubation with mCCL2-SNBD for 1 h. Left panel: untreated cells; middle panel: cells treated with mCCL2-SNBD (4 μM); right panel: cells treated with mCCL2-SNBD (4 μM) and the CCR2 antagonist RS102895 (40 μM) (exc/em: 405/515 nm). Insets show the corresponding brightfield images. Scale bars: 25 μm. […]
Next, we acquired fluorescence microscopy images in live RAW264.7 macrophages as a murine macrophage cell line expressing the chemokine receptor CCR2.[64] We incubated the macrophages with mCCL2-SNBD, and fluorescence images were taken after 1 hour without any washing steps. […]
[…] Th e si gn al s w ere recorded as mi l l i degrees at 25 °C , an d th e mean resi du e el l i pti ci ty (MR E ) w as cal cu l ated accordi n g to [θ] […]

[4] = human red blood cells 0.5% (v/v) in PBS pH 7.4, 1 h at 37 °C, haemoglobin absorbance 405 nm, 0.01% Triton X-100 = 100%, Hill fit with maximum constrained to 100%, read-out: hemolytic activity EC50
[5] = red cells of human, 1 h, pH 7.4

GLRKRLRKFRNKIKEK-NH2 [sC18, reference compound]
EC50 (Human red blood cells; [4]): 70 ± 4 µM

CC[C@H](C)[C@H](NC(=O)[C@H](CCCCN)NC(=O)[C@H](CC(N)=O)NC(=O)[C@H](CCCNC(=N)N)NC(=O)[C@H](Cc1ccccc1)NC(=O)[C@H](CCCCN)NC(=O)[C@H](CCCNC(=N)N)NC(=O)[C@H](CC(C)C)NC(=O)[C@H](CCCNC(=N)N)NC(=O)[C@H](CCCCN)NC(=O)[C@H](CCCNC(=N)N)NC(=O)[C@H](CC(C)C)NC(=O)CN)C(=O)N[C@@H](CCCCN)C(=O)N[C@@H](CCC(=O)O)C(=O)N[C@@H](CCCCN)C(=O)N[C@@H](CSc1ccc([N+](=O)[O-])c2nsnc12)C(N)=O [sC18-SNBD] (H-GLRKRLRKFRNKIKEKC(X1)-NH2)
EC50 (Human red blood cells; [5]): 43 ± 3 µM

CC[C@H](C)[C@H](NC(=O)[C@H](CCCCN)NC(=O)[C@@H](NC(=O)[C@H](CCC(N)=O)NC(=O)[C@@H](N)CCCNC(=N)N)[C@@H](C)CC)C(=O)N[C@@H](Cc1c[nH]c2ccccc12)C(=O)N[C@@H](Cc1ccccc1)C(=O)N[C@@H](CCC(N)=O)C(=O)N[C@@H](CC(N)=O)C(=O)N[C@@H](CCCNC(=N)N)C(=O)N[C@@H](CCCNC(=N)N)C(=O)N[C@@H](CCSC)C(=O)N[C@@H](CCCCN)C(=O)N[C@@H](Cc1c[nH]c2ccccc12)C(=O)N[C@@H](CCCCN)C(=O)N[C@@H](CCCCN)C(=O)N[C@@H](CSc1ccc([N+](=O)[O-])c2nsnc12)C(N)=O [penetratin-SNBD]
EC50 (Human red blood cells; [5]): 27 ± 3 µM

CC(C)C[C@H](NC(=O)[C@H](Cc1ccc(O)cc1)NC(=O)[C@H](CCCNC(=N)N)NC(=O)[C@H](CO)NC(=O)[C@H](CSc1ccc([N+](=O)[O-])c2nsnc12)NC(=O)[C@H](C)NC(=O)[C@H](Cc1ccc(O)cc1)NC(=O)[C@H](CC(C)C)NC(=O)[C@@H](N)CCCCN)C(N)=O [P1-SNBD] (H-KLYAC(X1)SRYL-NH2)
Peptide stability, percentage relative to peptide without bioanalyte ([1]; 1 mM NADH, 3 h): > 95% | Peptide stability, percentage relative to peptide without bioanalyte ([1]; 1 mM NADH, 24 h): > 95% | Peptide stability, percentage relative to peptide without bioanalyte ([1]; 1 mM NADH, 48 h): > 95% | Peptide stability, percentage relative to peptide without bioanalyte ([1]; 5 mM glutathione, 3 h): > 95% | Peptide stability, percentage relative to peptide without bioanalyte ([1]; 5 mM glutathione, 24 h): > 95% | Peptide stability, percentage relative to peptide without bioanalyte ([1]; 5 mM glutathione, 48 h): > 95% | chemical stability ([2]; cell culture media at 37 °C): no major degradation | chemical stability ([2]; different biologically relevant reducing environments): no major degradation | chemical stability ([2]; phosphate buffered saline (PBS, pH 7.0) at 25 °C): no major degradation

CC[C@H](C)[C@H](NC(=O)[C@H](CCCCN)NC(=O)[C@@H](NC(=O)[C@H](CCC(N)=O)NC(=O)[C@@H](N)CCCNC(=N)N)[C@@H](C)CC)C(=O)N[C@@H](Cc1c[nH]c2ccccc12)C(=O)N[C@@H](Cc1ccccc1)C(=O)N[C@@H](CCC(N)=O)C(=O)N[C@@H](CC(N)=O)C(=O)N[C@@H](CCCNC(=N)N)C(=O)N[C@@H](CCCNC(=N)N)C(=O)N[C@@H](CCSC)C(=O)N[C@@H](CCCCN)C(=O)N[C@@H](Cc1c[nH]c2ccccc12)C(=O)N[C@@H](CCCCN)C(=O)N[C@@H](CCCCN)C(N)=O [penetratin, reference compound]
EC50 (Human red blood cells; [4]): 34 ± 5 µM

mCCL2-SNBD: mCCL2 labeled with SNBD at the C-terminal Cys, 9063.6 Da
internalization in presence of CCR2 antagonist ([3]; RS102895 40 μM pre-incubated 15 min): substantially reduced intracellular fluorescence emission | internalization in live macrophages ([3]; no washing steps): bright fluorescence signals distributed across the cytosol

N=C(N)NCCC[C@H](NC(=O)CNC(=O)[C@@H](N)Cc1ccc(O)cc1)C(=O)N[C@@H](CCCCN)C(=O)N[C@@H](CCCCN)C(=O)N[C@@H](CCCNC(=N)N)C(=O)N[C@@H](CCCNC(=N)N)C(=O)N[C@@H](CCC(N)=O)C(=O)N[C@@H](CCCNC(=N)N)C(=O)N[C@@H](CCCNC(=N)N)C(=O)N[C@@H](CCCNC(=N)N)C(=O)N1CCC[C@H]1C(=O)N[C@@H](CCC(N)=O)C(=O)N[C@@H](CSc1ccc([N+](=O)[O-])c2nsnc12)C(N)=O [TAT-SNBD]
EC50 (Human red blood cells; [4]): 53 ± 2 µM

N=C(N)NCCC[C@H](NC(=O)CNC(=O)[C@@H](N)Cc1ccc(O)cc1)C(=O)N[C@@H](CCCCN)C(=O)N[C@@H](CCCCN)C(=O)N[C@@H](CCCNC(=N)N)C(=O)N[C@@H](CCCNC(=N)N)C(=O)N[C@@H](CCC(N)=O)C(=O)N[C@@H](CCCNC(=N)N)C(=O)N[C@@H](CCCNC(=N)N)C(=O)N[C@@H](CCCNC(=N)N)C(=O)N1CCC[C@H]1C(=O)N[C@@H](CCC(N)=O)C(N)=O [TAT, reference compound]
EC50 (Human red blood cells; [4]): 79 ± 6 µM
